Results as given in the METLIN SMRT retention time set (Domingo-Almenara et al. 2019).

Assay: gradient 5% acetonitrile 3 min, to 50% in 2 min, to 85% in 15 min, held 3 min, 100 µL/min
Details: column: Zorbax Extend-C18 2.1 x 50 mm; eluents: water / acetonitrile, 0.1% formic acid
Summary of the method: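 Pure standards were analyzed in mixtures of ~100 molecules using HPLC coupled to a quadrupole time-of-flight mass spectrometer, in both positive and negative ionization mode. Separation used a Zorbax Extend-C18 column (2.1 × 50 mm, 1.8 μm) at 100 μL/min, with water and acetonitrile each containing 0.1% formic acid. Dead and dwell volumes were 40 μL and 900 μL, and data were collected over 3 months. Retention time was read from computationally picked adduct peaks, each inspected manually.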

Row | SMILES | RP-LC retention time
1 | CC(C)CCNC(=O)C1(C)CCC(=O)N1CCc1c[nH]c2ccccc12 (stereo not drawn) | 786 s
2 | CCCc1ccc(S(=O)(=O)N2C[C@@H](F)C[C@H]2C(=O)N2CCCCC2)cc1 | 937 s
3 | O=C(Nc1cc(F)ccc1Cl)c1ccc2c(c1)nnn2CCN1CCOCC1 | 633 s
4 | Cc1cccc(N2CCN(S(=O)(=O)c3cc(-c4cc(C(F)(F)F)[nH]n4)sc3C)CC2)c1C | 1290 s
5 | Cc1cc(C(=O)Nc2nnc(SCC(=O)N3CCCc4ccccc43)s2)c(C)o1 | 894 s
6 | CC(C)N1CCN(C(=O)CC2Sc3ncccc3N(C)C2=O)CC1 (stereo not drawn) | 570 s
7 | CC(C)C(=O)Nc1nc(-c2ccc3c(c2)N(C)C(=O)CO3)cs1 | 787 s
8 | CCOC(=O)c1c(C)[nH]c(C(=O)N2CCC(CC(=O)NCc3ccccc3Cl)CC2)c1C | 813 s
9 | COc1cc(OC)cc(C(=O)N2CCC3(CC2)NC(=O)c2ccc(Cl)cc2N3)c1 | 742 s
10 | O=S(=O)(c1cccc2nsnc12)N1CCCn2nc(-c3ccncc3)cc2C1 | 591 s
11 | COc1cccc(-c2ccc(=O)n(CCc3nc(-c4ccc(F)cc4)no3)n2)c1 | 981 s
12 | O=C(c1ccc2c(c1)OCO2)N1CCC(c2nc(C3CC3)no2)C1 (stereo not drawn) | 740 s
13 | Cn1nc(CN2CCOCC2)c2c1CCN(S(=O)(=O)c1cc(F)cc(F)c1)C2 | 642 s
14 | CCS(=O)(=O)N(C1CC1)C1CCOC2(CCN(C(=O)c3sc(C)nc3C)CC2)C1 (stereo not drawn) | 714 s
15 | Cc1cc(N2CCN(c3ccccn3)CC2)n2nc(-c3cccc(Cl)c3)c(C)c2n1 | 828 s
16 | Cc1nc(-c2cc3cccc(C)c3nc2N2CCN(C)CC2)no1 | 665 s
17 | O=c1n(Cc2cc(F)cc(F)c2)nc2ccc(S(=O)(=O)N3CCCCC3)cn12 | 960 s
18 | CC(C)OCCCNC(=O)C1CCN(S(C)(=O)=O)c2cc(Cl)ccc2O1 (stereo not drawn) | 838 s
19 | Cc1c(-c2noc(-c3ccccc3F)n2)nnn1Cc1cccc(F)c1 | 1050 s

Row | SMILES | RP-LC retention time
20 | O=C(NC1CC1)C1CCN(S(=O)(=O)c2cc(C(=O)N3CCCCCC3)cs2)CC1 | 713 s
21 | CCOc1ccc(S(=O)(=O)N2CCC(c3noc(-c4ccc(Cl)cc4)n3)CC2)cc1 | 1260 s
22 | COCCc1noc(-c2ccc(=O)n(CC(=O)Nc3cc(F)ccc3F)c2)n1 | 728 s
23 | COc1cc(OC)c(NC(=O)Cn2cc3c(n2)CCCC3)cc1Cl | 906 s
24 | O=C(C1=CN(c2ccc(Oc3ccccc3)cc2)c2cc(F)ccc2S1(=O)=O)N1CCOCC1 | 958 s
25 | Cc1onc(-c2ccccc2Cl)c1C(=O)NCCn1nc(-c2ccccc2)n(C)c1=O | 708 s
26 | C=CCNC(=O)N1CC(=O)Nc2ccccc21 | 592 s
27 | Cc1cc(N2CCN(C(=O)c3ccc(Br)o3)CC2)nc(N2CCCC2)n1 | 636 s
28 | O=C(Nc1cccc(Cl)c1)c1c(O)c2cccnc2n(-c2cccc(F)c2)c1=O | 1360 s
29 | CC(C)n1c(=O)oc2cc(-c3noc(-c4ccccc4Br)n3)ccc21 | 1220 s
30 | CCCN1CCN(S(=O)(=O)c2cc(-c3cc(C(F)(F)F)[nH]n3)sc2C)CC1 | 707 s
31 | CCc1nn2c(CNS(=O)(=O)c3ccc(F)cc3)c(-c3ccccc3)nc2s1 | 932 s
32 | O=C(Cn1cccc1-c1nnc(C2CC2)o1)Nc1ccc(F)c(Cl)c1 | 908 s
33 | Cc1cnc(C2CN(Cc3cccc(C#N)c3)C2)n1Cc1ccccc1 | 582 s
34 | CCN1CCN(C2=NCCN2C(=O)c2ccccc2Br)CC1 | 898 s
35 | O=S(=O)(Cc1ccccc1F)N1CCC(c2noc(-c3ccncc3)n2)C1 (stereo not drawn) | 839 s
36 | Cc1noc(-c2nc(-c3ccc(Cl)c(F)c3)no2)n1 | 1090 s
37 | c1ccc(-c2cn3c(n2)SCC3)cc1 | 549 s
38 | COc1ccc(CN2C=C(C(=O)OCc3noc(-c4ccc(C)c(C)c4)n3)C(C)=NS2(=O)=O)cc1 | 1230 s

Row | SMILES | RP-LC retention time
39 | O=C(c1ccco1)N1CCCC1c1nc(-c2ccc(F)cc2F)no1 (stereo not drawn) | 860 s
40 | Cc1ccnn1-c1ccc(SCC(=O)Nc2cc(F)ccc2F)nn1 | 934 s
41 | CSc1ccc(CNC(=O)c2cn3ccccc3n2)cc1 | 692 s
42 | CCc1cc(C(=O)NCC2CCCO2)nc2cc(-c3ccccn3)nn12 (stereo not drawn) | 739 s
43 | Cc1csc(-c2cc(S(=O)(=O)N3CCCCC3)cn2CC(=O)N2CCCC2)n1 | 890 s
44 | Cc1nc(-c2cc(S(=O)(=O)Nc3ccc(F)cc3Cl)c(C)s2)cs1 | 1050 s
45 | CCN1CCN(C(=O)c2sc(-c3cn(C(C)C)c4ncccc34)nc2C)CC1 | 612 s
46 | Cc1nn(C)c(C)c1C(=O)N1CC(n2cc(COc3ccc(F)cc3)nn2)C1 | 712 s
47 | Cc1nc(C2CCOCC2)n(C2CCN(S(=O)(=O)c3c(C)c(C)cc(C)c3C)C2)n1 (stereo not drawn) | 874 s
48 | CCOc1ccc(C(=O)Nc2ccc3c(c2)Sc2ncccc2C(=O)N3C)cc1 | 826 s
49 | COc1cccc(C(=O)c2oc3ccccc3c2NC(=O)c2ccccc2[N+](=O)[O-])c1 | 1080 s
50 | CCCNc1nc(-c2nnc(-c3cccc(C)c3)o2)nc2ccccc12 | 1000 s
51 | COc1ccc(CCNC(=O)C2CCc3nc(N4CCC(C)CC4)ncc3C2)cc1OC (stereo not drawn) | 757 s
52 | O=C(NCCc1c[nH]c2ccc(Cl)cc12)c1ccccc1Cl | 873 s
53 | O=C(c1noc2ccc(S(=O)(=O)N3CCN(c4ccccn4)CC3)cc12)N1CCCCC1 | 703 s
54 | CCCN1C(=O)c2cc(S(=O)(=O)NCc3ccccc3F)ccc2Oc2cccnc21 | 1030 s
55 | CCOc1ccc(NC(=O)Cn2c(N3CCOCC3)nc(CC)cc2=O)cc1 | 732 s
56 | O=C(NCc1ccccc1F)C1=C2CCCN2c2ccccc2S1(=O)=O | 818 s
57 | CCc1noc(NC(C)=O)c1-c1ccc(C)c(S(=O)(=O)Nc2cc(C)ccc2C)c1 | 900 s

The remaining lines, values ahead:

Row | RP-LC retention time | SMILES
58 | 934 s | CCCn1c(=O)sc2cc(S(=O)(=O)N3CCC(C(=O)NCc4ccc(F)cc4)CC3)ccc21
59 | 634 s | O=C(C1CC(=O)N(c2ccc3c(c2)CCN3C(=O)C2CC2)C1)N1CCOCC1 (stereo not drawn)
60 | 690 s | N#Cc1cccc(-c2cn3c(n2)N(C(=O)C2CCC2)CCC3)c1
61 | 788 s | CCc1nc2c(NC(=O)NCc3ccc(F)cc3)cccn2n1
62 | 747 s | O=C(NCc1ccccc1F)C1CCN(C(=O)c2ncn3c2COC(c2ccccc2)C3)CC1 (stereo not drawn)
63 | 908 s | Cc1ccc(C)c(NC(=O)Cn2nc3c(Oc4ccccc4C)nccn3c2=O)c1
64 | 761 s | COc1ccc(C)cc1NC(=O)N1CCN(Cc2nc3cc(C)ccc3o2)CC1
65 | 1080 s | Cc1ccc(-c2noc(-c3nn(CC(=O)N4CCCC4)c4ccccc34)n2)cc1
66 | 792 s | CC(=O)N(C1CCOCC1)C1CCN(S(=O)(=O)c2cc(F)ccc2C)CC1
67 | 1030 s | CCc1ccc2c(c1)cc(S(=O)(=O)c1ccccc1)c(=O)n2CC(=O)NC1CCCCC1
68 | 795 s | COc1ccc(CNC(=O)C2CCN(S(=O)(=O)c3ccc4c(c3)sc(=O)n4C)CC2)cc1
69 | 888 s | COc1ccc(-n2c(=O)n(C)c(=O)c3cc(C(=O)NCc4ccc(C)cc4)cnc32)cc1
70 | 786 s | Cc1noc(C)c1-c1ccc(S(=O)(=O)NC2CC2)cc1
71 | 640 s | O=C(c1ccc(Cl)cc1)N1CCN=C1N1CCCCC1
72 | 743 s | COc1cccc(NC(=O)c2c(C)oc3nc(C)nc(N4CCCC4)c23)c1
73 | 714 s | O=C(c1ccc(OCC2CCCN2C(=O)C2CC2)cc1)N1CCCC1 (stereo not drawn)

Row | RP-LC retention time | SMILES
74 | 808 s | COc1ccc(N2C(=O)CN(C(C)c3ccccc3)[C@H]3CS(=O)(=O)C[C@H]32)cc1 (stereo partly drawn)
75 | 966 s | CC(C)c1ccc(N2C(=O)CN(S(C)(=O)=O)CC2(C)C(=O)NCc2ccc(Cl)cc2)cc1 (stereo not drawn)
76 | 958 s | CC1CCN(S(=O)(=O)c2ccc3c(c2)CCCC(=O)N3CC(=O)Nc2ccccc2)CC1
77 | 930 s | CCOc1ccc(N2C=C(C(=O)N3CCCC3)S(=O)(=O)c3ccc(Cl)cc32)cc1
78 | 576 s | CCNc1cc(C)nc(N2CCN(C(=O)c3ccccc3Cl)CC2)n1
79 | 846 s | CC(=O)c1ccc(NC(=O)Cn2cc(-c3ccccc3)c3ncn(C4CC4)c(=O)c32)cc1
80 | 927 s | CCc1ccc(NC(=O)C2CCN(S(=O)(=O)c3ccc4c(c3)NC(=O)C(C)O4)CC2)cc1 (stereo not drawn)
81 | 947 s | Cc1ccc(N2C(=O)Cn3cccc3C2C(=O)NC2CCCCC2C)cc1 (stereo not drawn)
82 | 832 s | Cc1ccc(NC(=O)N2CCC(n3cnc4cc(F)ccc4c3=O)CC2)cc1F
83 | 929 s | CCOc1ccc(C(=O)Nc2cnn(-c3ncncc3N3CCC(C)CC3)c2)cc1
84 | 889 s | Cc1c(C(=O)N2CCCC2)cc(-c2ccc(F)cc2)n1C
85 | 761 s | O=C(CN1C(=O)CCc2cc(Br)ccc21)Nc1ccccn1
86 | 1280 s | O=S(=O)(NC1CCCCC1)c1ccccc1-c1nc(-c2ccccc2)no1
87 | 902 s | O=C(CS(=O)Cc1cnn(-c2ccccc2)c1-n1cccc1)N1CCCCCC1 (stereo not drawn)
88 | 1150 s | Cc1ccc(-c2c(C(=O)NCc3ccco3)nc3ccccn23)cc1
